The test system of data set [1] is histamine-contracted isolated ileal smooth muscle of guinea pigs. In words: Muscle tone of isolated ileal smooth muscle of guinea pigs contracted with histamine. Set-up: species or system guinea pig. The conditions noted are these: 3 minutes after adding 0.05 mL compound to histamine-contracted ileum; x ± s, n = 8. The procedure:
(§1) The guinea pig was knocked unconscious with a wooden stick, and the abdomen was immediately dissected to separate the ileum about 15 cm in length. The contents of the intestinal segment were flushed with Tyrode's solution and placed in Tyrode's solution at a constant temperature of 37° C. for later use, and oxygen was supplied simultaneously. The experimental intestinal tract (1 cm in length) was cut and placed into 20 ml of Tyrode's solution at a constant temperature of 37° C. with a continuous oxygen supply. One end of the intestine was fixed on the ventilation hook and the other end was connected to the muscle tone transducer and led to the computer interface. The muscle tone value of the ileal smooth muscle was recorded with a BL system. The experiment was carried out after the intestinal segment contraction became stable. […] The operation was repeated 8 times. The antispasmodic percentage was calculated using the following equation.

The nature of data set [2]: Solubility in water, methanol and isopropanol. Format: physicochemical.
Experimental: The solubility in water, methanol, and isopropanol of the compounds of the present disclosure and the comparative compounds were measured separately.
Data set [3] has as its system histamine-induced asthma in guinea pigs. The data set is described as follows: Antiasthmatic effect on histamine-induced asthma in guinea pigs. Format: in vivo, guinea pig. The following applies: 60 min after 1 mg/kg oral gavage; histamine hydrochloride spray; no asthma within 8 min counted as 8 min; X ± s, n = 5. Here is the method: The time point at which the guinea pigs developed asthma was recorded. The time of convulsion and fall was taken as the latency period. Guinea pigs with a latency period exceeding 180 seconds were not selected. […] The guinea pigs were administered by oral gavage at a dose of 2 mL/kg·bw. Sixty minutes after the administration, the guinea pigs were placed in bell jars, and histamine hydrochloride solution was sprayed under the same conditions as in the previous selection. The latency period for the onset of asthma was recorded. […] The results were processed statistically.

Data set [4] can be described thus: Accelerated stability test. Format: physicochemical. The following applies: 40° C.±2° C., RH 75%±5%. The procedure:
The compound of the present disclosure was placed at a temperature of 40° C.±2° C. and a relative humidity of 75%±5% for 6 months, and samples were taken to determine for the descriptions, related substances, and contents.

For data set [5], the system named is isolated ileal smooth muscle of guinea pigs. The data set is described as follows: Muscle tone of isolated ileal smooth muscle of guinea pigs (compound alone). Set-up: species or system guinea pig. The conditions noted are these: 5 minutes after adding drug, no histamine; X ± s, n = 8. The procedure:
as §1, with “according to” for “using”, “formula. [formula]” for “equation.”

[6] abbreviates: isopropanol, organic solvent or mixture, solvent isopropanol, read-out: Solubility, Isopropanol.
Setting [7] is: methanol, organic solvent or mixture, solvent methanol, read-out: Solubility, Methanol.
Setting [8] is: water, solvent water, read-out: Solubility, Water.
[9] abbreviates: organic solvent or mixture, solvent isopropanol, read-out: Solubility, Isopropanol.
Setting [10] is: organic solvent or mixture, solvent methanol, read-out: Solubility, Methanol.

The source of these data is patent US20260274875A1, “[…] COMPOUNDS, PREPARATION METHOD AND USE THEREOF” (HC SYNTHETIC PHARMACEUTICAL CO., LTD., priority 2022, published 2026).

Converted amounts (≈) assume the structure as drawn. Like-named read-outs stand apart in the source and are kept apart here.

As to `OCCCN1CCC(=C2c3ccc(Cl)cc3CCc3cccnc32)CC1` [Hydroxypropyl desloratadine, Hydroxypropyl Desloratadine], the “Antispasmodic percentage (%)” value in data set [1] stood at 58.77 ± 13.82%.
Turning to `O=P(O)(O)OCCCN1CCC(=C2c3ccc(F)cc3CCc3cccnc32)CC1` [Compound III-8], the solubility in data set [2] (setting [6]) was 22 mg/mL (≈ 50.9 mM); in data set [2] (setting [7]) it was 40 mg/mL (≈ 92.5 mM); in data set [2] (setting [8]), 30 mg/mL (≈ 69.4 mM). Further, in data set [3], the “Post-administration latency period” value is given as 370.94 ± 50.29 s.
Consider `O=P(O)(O)OCCCCCN1CCC(=C2c3ccc(F)cc3CCc3cccnc32)CC1` [Compound III-14], for which the results for the solubility in data set [2] (setting [6]), in data set [2] (setting [7]) and in data set [2] (setting [8]) were 25 mg/mL (≈ 54.3 mM), 44 mg/mL (≈ 95.6 mM) and 32 mg/mL (≈ 69.5 mM), respectively. Besides, the Content in data set [4] (Month 2) and in data set [4] (Month 3) was 99.5% throughout.
With `O=P(O)(O)OCOCCCN1CCC(=C2c3ccc(Cl)cc3CCc3cccnc32)CC1` [Compound III-17], the solubility stood at 25 mg/mL (≈ 52.2 mM) in data set [2] (setting [6]), 42 mg/mL (≈ 87.7 mM) in data set [2] (setting [7]) and 30 mg/mL (≈ 62.6 mM) in data set [2] (setting [8]).
Consider `O=P(O)(O)OCCCN1CCC(=C2c3ccc(Cl)cc3CCc3cccnc32)CC1` [Compound III-7], for which the solubility in data set [2] (setting [7]) turned out to be 40 mg/mL (≈ 89.1 mM); in data set [2] (setting [8]), 30 mg/mL (≈ 66.8 mM).
Take `O=P([O-])([O-])OCN1CCC(=C2c3ccc(Cl)cc3CCc3cccnc32)CC1.[Na+].[Na+]` [Compound IV-1]: the solubility in data set [2] (setting [7]) came out at 44 mg/mL; in data set [2] (setting [8]), 432 mg/mL.
As for `O=P([O-])([O-])OCOCCCN1CCC(=C2c3ccc(Cl)cc3CCc3cccnc32)CC1.[Na+].[Na+]` [Compound IV-9], the solubility in data set [2] (setting [6]) is 2 mg/mL; in data set [2] (setting [7]), 27 mg/mL; in data set [2] (setting [8]) it was 411 mg/mL. Also, the Content in data set [4] (Month 1), in data set [4] (Month 2) and in data set [4] (Month 3) was 99.7% each time.
Consider `O=P(O)(O)OCCCCCN1CCC(=C2c3ccc(Br)cc3CCc3cccnc32)CC1` [Compound III-15], for which the solubility turned out to be 25 mg/mL (≈ 47.9 mM) in data set [2] (setting [6]), 44 mg/mL (≈ 84.4 mM) in data set [2] (setting [7]) and 32 mg/mL (≈ 61.4 mM) in data set [2] (setting [8]).
For the compound `O=P(O)(O)OCCCCCN1CCC(=C2c3ccc(Cl)cc3CCc3cccnc32)CC1` [Compound IV-7], the Content in data set [4] (Month 3) came out at 99.5%.
`O=P(O)(O)OCCN1CCC(=C2c3ccc(Cl)cc3CCc3cccnc32)CC1` [Compound III-4]: the results for the solubility in data set [2] (setting [9]), in data set [2] (setting [10]) and in data set [2] (setting [8]) were 22 mg/mL (≈ 50.6 mM), 38 mg/mL (≈ 87.4 mM) and 28 mg/mL (≈ 64.4 mM), respectively.
Consider `O=P(O)(O)OCOCCN1CCC(=C2c3ccc(Cl)cc3CCc3cccnc32)CC1` [Compound IV-8], for which the “Smooth muscle tone (g) After administration” value in data set [1] is given as 1.19 ± 0.28 g. This compound had a Content in data set [4] (Month 3) of 99.5%.
Turning to `O=P([O-])([O-])OCCN1CCC(=C2c3ccc(Cl)cc3CCc3cccnc32)CC1.[K+].[K+]` [Compound IV-2], the figures for the solubility in data set [2] (setting [6]), in data set [2] (setting [7]) and in data set [2] (setting [8]) were 1 mg/mL, 23 mg/mL and 389 mg/mL, respectively. Besides, the Content came to 99.6% in data set [4] (Month 1) and 99.5% in data set [4] (Month 3).
For `O=P([O-])([O-])OCCCCN1CCC(=C2c3ccc(Cl)cc3CCc3cccnc32)CC1.[Na+].[Na+]` [Compound IV-4], the solubility was 1 mg/mL in data set [2] (setting [6]) and 20 mg/mL in data set [2] (setting [7]). Moreover, the Content in data set [4] (Month 1), in data set [4] (Month 2) and in data set [4] (Month 3) was 99.6% in each case.
Regarding `O=P(O)(O)OCCCCN1CCC(=C2c3ccc(Br)cc3CCc3cccnc32)CC1` [Compound III-12], the solubility is 25 mg/mL (≈ 49.3 mM) in data set [2] (setting [6]), 43 mg/mL (≈ 84.8 mM) in data set [2] (setting [7]) and 32 mg/mL (≈ 63.1 mM) in data set [2] (setting [8]).
For the compound `O=P(O)(O)OCCCCN1CCC(=C2c3ccc(Cl)cc3CCc3cccnc32)CC1` [Compound III-10], the solubility was 43 mg/mL (≈ 92.9 mM) in data set [2] (setting [7]) and 30 mg/mL (≈ 64.8 mM) in data set [2] (setting [8]). Moreover, in data set [5], the “Antispasmodic percentage (%)” value was determined as 35.75 ± 19.99%.
Regarding `O=P(O)(O)OCCN1CCC(=C2c3ccc(Br)cc3CCc3cccnc32)CC1` [Compound III-6], the values for the solubility in data set [2] (setting [9]), in data set [2] (setting [10]) and in data set [2] (setting [8]) were 22 mg/mL (≈ 45.9 mM), 40 mg/mL (≈ 83.5 mM) and 28 mg/mL (≈ 58.4 mM), respectively.
On to `O=P(O)(O)OCOCCCCCN1CCC(=C2c3ccc(Cl)cc3CCc3cccnc32)CC1` [Compound III-19], for which the solubility in data set [2] (setting [6]) turned out to be 25 mg/mL (≈ 49.3 mM); in data set [2] (setting [7]), 42 mg/mL (≈ 82.8 mM); in data set [2] (setting [8]), 30 mg/mL (≈ 59.2 mM).
In the case of `O=P(O)(O)OCCCCCN1CCC(=C2c3ccc(Cl)cc3CCc3cccnc32)CC1` [Compound III-13], the solubility in data set [2] (setting [7]) was determined as 44 mg/mL (≈ 92.3 mM); in data set [2] (setting [8]), 32 mg/mL (≈ 67.1 mM).
With `OCCCCCN1CCC(=C2c3ccc(Cl)cc3CCc3cccnc32)CC1` [Hydroxypentyl desloratadine, Hydroxypentyl Desloratadine], in data set [1], the “Antispasmodic percentage (%)” value is listed as 58.53 ± 12.34%.
In the case of `OCCCCCCN1CCC(=C2c3ccc(Cl)cc3CCc3cccnc32)CC1` [Hydroxyhexyl desloratadine, Hydroxyhexyl Desloratadine], the “Antispasmodic percentage (%)” value in data set [1] was found to be 58.30 ± 14.11%.
As to `O=P(O)(O)OCCCN1CCC(=C2c3ccc(Br)cc3CCc3cccnc32)CC1` [Compound III-9], the solubility in data set [2] (setting [6]) was determined as 22 mg/mL (≈ 44.6 mM); in data set [2] (setting [7]) it was 40 mg/mL (≈ 81.1 mM); in data set [2] (setting [8]), 30 mg/mL (≈ 60.8 mM).
Take `O=P(O)(O)OCOCCCCN1CCC(=C2c3ccc(Cl)cc3CCc3cccnc32)CC1` [Compound III-18]: the solubility in data set [2] (setting [6]) came to 25 mg/mL (≈ 50.7 mM); in data set [2] (setting [7]) it was 42 mg/mL (≈ 85.2 mM); in data set [2] (setting [8]), 30 mg/mL (≈ 60.9 mM). In data set [4] (Month 3), this compound showed a Content of 99.5%.
`O=P([O-])([O-])OCOCCCCN1CCC(=C2c3ccc(Cl)cc3CCc3cccnc32)CC1.[Na+].[Na+]` [Compound IV-10]: the solubility was determined as 2 mg/mL in data set [2] (setting [6]), 27 mg/mL in data set [2] (setting [7]) and 401 mg/mL in data set [2] (setting [8]).
As to `O=P(O)(O)OCCN1CCC(=C2c3ccc(F)cc3CCc3cccnc32)CC1` [Compound III-5], the solubility in data set [2] (setting [9]) stood at 22 mg/mL (≈ 52.6 mM); in data set [2] (setting [10]) it was 40 mg/mL (≈ 95.6 mM); in data set [2] (setting [8]) it was 28 mg/mL (≈ 66.9 mM).
As for `O=P(O)(O)OCCCCN1CCC(=C2c3ccc(F)cc3CCc3cccnc32)CC1` [Compound III-11], the solubility in data set [2] (setting [6]) is 25 mg/mL (≈ 56 mM); in data set [2] (setting [7]) it was 43 mg/mL (≈ 96.3 mM); in data set [2] (setting [8]), 30 mg/mL (≈ 67.2 mM). The “Antispasmodic percentage (%)” value in data set [5] was found to be 31.58 ± 18.30%.
Turning to `O=P([O-])([O-])OCOCCCCCN1CCC(=C2c3ccc(Cl)cc3CCc3cccnc32)CC1.[Na+].[Na+]` [Compound IV-11], the solubility came to 2 mg/mL in data set [2] (setting [6]), 27 mg/mL in data set [2] (setting [7]) and 390 mg/mL in data set [2] (setting [8]). In data set [1], the “Smooth muscle tone (g) After administration” value was 1.18 ± 0.28 g.
